Measurements published in US4777290A, “10,10-dihydro-10-[(substituted-carbonyl)imino]-10-phe nyl-10H-phenoxaphosphines” (American Cyanamid Company, priority 1987, dated 1988).
“And” between values parts separate entries of the source, which are not always exact repeats. Equal entries are not always repeated. Structures can show the parent of a compound that is named as a salt.

Legend:
[1] = system: Spontaneously Hypertensive Rats; test: Diuretic activity in spontaneously hypertensive rats; format: in vivo, male spontaneously hypertensive rats of Okamoto strain; settings: 0-5 hour urine
Description: The diuretic activity of the compounds of this invention was determined according to the method of Chan, P. S. and Poorvin, D., Sequential method for combined screening antihypertensive and diuretic agents in the same spontaneously hypertensive rat. Clinical and Experimental Hypertension, 1 (6), 817-830 (1979).
Male spontaneously hypertensive rats of Okamoto strain, 16 weeks old, Taconic Farms Inc., were used in the test. These rats were kept on Purina laboratory chow and tap water ad libitum for 8 weeks before use. The male adult rats (about 300 g) were dosed by gavage with a test compound at 100 mg/kg at zero hour with the exception of one male adult rat in which the test compound dosage was 50 mg/kg. The test compound was suspended in 3% preboiled starch at 50 mg/ml. Each rat was put in metabolism cage. The 0-5 hour urine was collected and urinary sodium and potassium were determined using a Beckman Astra 4.

plasma renin activity = test: Inhibition of evoked increase of plasma renin activity (PRA) in conscious rats; format: in vivo, male Wistar rats; settings: oral, 30 min before provocative treatment, Wistar rats
Description: Inhibition of evoked increase of plasma renin activity was determined by the following test.
Compounds were tested for their ability to prevent drug-induced elevation of plasma renin activity (PRA) in concious, male Wistar rats (180-200 g, Charles River Lab.). PRA elevation was induced by a combined oral provocative treatment (C) of hydrochlorothiazide (10 mg/kg) and 1-(3-benzoyl-3-mercapto-2-methylpropionyl-L-proline, acetate (U.S. Pat. No. 4,226,775) (1 mg/kg), prepared by compounding in a mortar and pestle with preboiled 3% starch suspension. This treatment provided the daily maximum PRA. The daily minimum PRA was obtained from rats given oral starch suspension (S) alone. The magnitude of drug effect on PRA elevation was ascertained from rats pretreated orally with test agent (D), at the indicated doses, 30 minutes prior to administration of provocative treatment (C). The test agent was also compounded in preboiled 3% starch suspension. The dose volumes for both pretreatment and provocative treatment were 2 ml/kg. One hour after provocative treatment the rats were sacrificed by decapitation and the first 3 seconds of blood collected in two chilled vacutainer tubes containing 40 μl of 150 mg/ml tripotassium EDTA. The plasmas, which were obtained by centrifugation for 20 minutes at 4° C. and 3000×G, were incubated (one of each pair at 37° C., the other at 4° C.) at pH 6.8 in 50 mM phosphate buffer to produce angiotensin I. The incubates contained peptidase inhibitors to prevent angiotensin I degradation and the incubation buffer contained 1 mg/ml lysozyme (Sigma Grade III) used as an antiabsorbant. The incubates were diluted 20 fold in cold 100 mM tris buffer (pH adjusted to 7.4 with glacial acetic acid) also containing 1 mg/ml lysozyme, and then frozen. Diluted incubates were assayed within 3 days for angiotensin I content by radioimmunoassay according to a modification of the method of Haber, et al., J. Clin. Endocrin., 29, 1349-1355 (1969).
PRA is calculated as follows:
PRA([…])=PRA 37° C.-PRA 4° C.
Percent inhibition of PRA elevation is calculated as follows: [formula]

Stability in solution = format: physicochemical
[2] = 100 mg/kg by gavage, hydrochloride
[3] = 100 mg/kg by gavage, hydrobromide

SMILES	Potassium (urinary) ([1]; 100 mg/kg by gavage)	Sodium (urinary) ([1]; 100 mg/kg by gavage)	Volume (urine) ([1]; 100 mg/kg by gavage)	further results
O=C(N=P1(c2ccccc2)c2ccccc2Oc2ccccc21)OCc1ccccn1 [10,10-Dihydro-10-phenyl-10-[[(2-pyridylmethoxy)carbonyl]imino]-10H-phenoxaphosphine]	–	–	–	Potassium (urinary) ([1]; 50 mg/kg by gavage): 0.74 MEQ/5 Hours; Sodium (urinary) ([1]; 50 mg/kg by gavage): 1.26 MEQ/5 Hours; Volume (urine) ([1]; 50 mg/kg by gavage): 10.8 mL
C#CCOC(=O)N=P1(c2ccccc2)c2ccccc2Oc2ccccc21 [10,10-Dihydro-10-phenyl-10-[[(2-propynyloxy)carbonyl]imino]-10H-phenoxaphosphine]	0.61 MEQ/5 Hours	1.13 MEQ/5 Hours	10.5 mL	–
O=C(N=P1(c2ccccc2)c2ccccc2Oc2ccccc21)OCc1ccccc1 [10,10-Dihydro-10-phenyl-10-[[(phenylmethoxy)carbonyl]imino]-10H-phenoxaphosphine]	0.56 MEQ/5 Hours	1.32 MEQ/5 Hours	12.3 mL	–
O=C(N=P1(c2ccccc2)c2ccccc2Oc2ccccc21)OC1CCCC1 [10-[[(Cyclopentyloxy)carbonyl]imino]-10,10-dihydro-10-phenyl-10H-phenoxaphosphine]	0.60 MEQ/5 Hours	1.71 MEQ/5 Hours	14.0 mL	–
O=C(N=P1(c2ccccc2)c2ccccc2Oc2ccccc21)OCC1CC1 [10-[[(Cyclopropylmethoxy)carbonyl]imino]-10,10-dihydro-10-phenyl-10H-phenoxaphosphine]	0.75 MEQ/5 Hours	1.41 MEQ/5 Hours	10.8 mL	–
O=C(N=P1(c2ccccc2)c2ccccc2Oc2ccccc21)OCc1cccnc1 [10,10-Dihydro-10-phenyl-10-[[(3-pyridylmethoxy)carbonyl]imino]-10H-phenoxaphosphine]	0.59 MEQ/5 Hours	2.61 MEQ/5 Hours	20.5 mL	–
O=C(N=P1(c2ccccc2)c2ccccc2Oc2ccccc21)OC1CCOC1 (stereo not drawn) [10,10-Dihydro-10-phenyl-10-[[[(tetrahydro-3-furanyl)-oxy]carbonyl]imino]-10H-phenoxaphosphine]	0.73 MEQ/5 Hours	1.49 MEQ/5 Hours	14.3 mL	–
N=P1(c2ccccc2)c2ccccc2Oc2ccccc21 [10,10-Dihydro-10-imino-10-phenyl-10H-phenoxaphosphine, hydrochloride]	–	–	–	Potassium (urinary) [1, 2]: 0.59 MEQ/5 Hours; Sodium (urinary) [1, 2]: 2.01 MEQ/5 Hours; Volume (urine) [1, 2]: 16.5 mL
CCOC(=O)N=P1(c2ccccc2)c2ccccc2Oc2ccccc21 [10,10-Dihydro-10-[(ethoxycarbonyl)imino]-10-phenyl-10H-phenoxaphosphine]	0.49 MEQ/5 Hours	2.20 MEQ/5 Hours	19.0 mL	Percent Inhibition of Plasma Renin Elevation, Av. % Inhibition (plasma renin activity; 1 mg/kg): 33%; Percent Inhibition of Plasma Renin Elevation, Av. % Inhibition (plasma renin activity; 2 mg/kg): 54%; Percent Inhibition of Plasma Renin Elevation, Av. % Inhibition (plasma renin activity; 4 mg/kg): 78%; Percent Inhibition of Plasma Renin Elevation, Av. % Inhibition (plasma renin activity; 8 mg/kg): 91%; Percent Inhibition of Plasma Renin Elevation, Av. % Inhibition (plasma renin activity; 25 mg/kg): 84%
O=C(N=P1(c2ccccc2)c2ccccc2Oc2ccccc21)OCc1ccncc1 [10,10-dihydro-10-phenyl-10-[[(4-pyridylmethoxy)carbonyl]imino]-10H-phenoxaphosphine]	0.40 MEQ/5 Hours	2.28 MEQ/5 Hours	18.0 mL	–
N=P1(c2ccccc2)c2ccccc2Oc2ccccc21 [10,10-Dihydro-10-imino-10-phenyl-10H-phenoxaphosphine, sulfa] [10,10-Dihydro-10-imino-10-phenyl-10H-phenoxaphosphine, sulfate]	0.18 MEQ/5 Hours	1.56 MEQ/5 Hours	9.8 mL	Percent Inhibition of Plasma Renin Elevation, Av. % Inhibition (plasma renin activity; 1 mg/kg): 38%; Percent Inhibition of Plasma Renin Elevation, Av. % Inhibition (plasma renin activity; 4 mg/kg): 31% and 42%; Percent Inhibition of Plasma Renin Elevation, Av. % Inhibition (plasma renin activity; 8 mg/kg): 67%; stability in solution (Stability in solution): stable in solution
C=CCOC(=O)N=P1(c2ccccc2)c2ccccc2Oc2ccccc21 [10,10-Dihydro-10-phenyl-10-[[(2-propenyloxy)carbonyl]imino]-10H-phenoxaphosphine]	0.61 MEQ/5 Hours	1.27 MEQ/5 Hours	12.0 mL	–
CC(C)COC(=O)N=P1(c2ccccc2)c2ccccc2Oc2ccccc21 [10,10-Dihydro-10-[[(2-methylpropoxy)carbonyl]-imino]-10-phenyl-10H-phenoxaphosphine]	0.64 MEQ/5 Hours	1.63 MEQ/5 Hours	12.8 mL	–
COC(=O)N=P1(c2ccccc2)c2ccccc2Oc2ccccc21 [10,10-Dihydro-10-[(methoxycarbonyl)imino]-10-phenyl-10H-phenoxaphosphine]	0.74 MEQ/5 Hours	1.48 MEQ/5 Hours	14.0 mL	–
N=P1(c2ccccc2)c2ccccc2Oc2ccccc21 [10,10-Dihydro-10-imino-10-phenyl-10H-phenoxaphosphine, hydrobromide]	–	–	–	Potassium (urinary) [1, 3]: 0.26 MEQ/5 Hours; Sodium (urinary) [1, 3]: 1.12 MEQ/5 Hours; Volume (urine) [1, 3]: 8.0 mL
CC(C)OC(=O)N=P1(c2ccccc2)c2ccccc2Oc2ccccc21 [10,10-Dihydro-10-[[(1-methylethoxy)carbonyl]imino]-10-phenyl-10H-phenoxaphosphine]	0.66 MEQ/5 Hours	2.30 MEQ/5 Hours	16.5 mL	–
N=P1(c2ccccc2)c2ccccc2Oc2ccccc21 [10,10-Dihydro-10-imino-10-phenyl-10H-phenoxaphosphine, bis(t] [10,10-Dihydro-10-imino-10-phenyl-10H-phenoxaphosphine, bis(trifluoroacetate)]	0.66 MEQ/5 Hours	1.16 MEQ/5 Hours	12.5 mL	–
